The text below walks through data of patent US7384656B2, “Anti-allergy composition and related method” (Access Business Group International LLC, priority 2004, dated 2008).

The test system of assay [1] is IgE secretion by U266 human myeloma cells. As to the kind of experiment: IgE secretion by U266 human myeloma cells (IgE ELISA of supernatants). It counts as cell-based. The following applies: varying concentrations. Here is the method: The methodology used to obtain the results of FIG. 3 will now be described. First, U266 human myeloma cells, available from ATCC of Manassas, Va. were plated in 96 well plates at 4×10^4/well. The cells were exposed to the sample combinations of ingredients listed in Table I, each combination referred to as a “sample.” Stock solutions of all samples were prepared in a solution of DMSO, ethanol, and water present in a ratio of 5:3:2 at 100 mg/ml. Each sample was then diluted to 100 μg/ml in media. Duplicate plates of each sample were prepared so that viability could be determined multiple times for each sample, with the results of the multiple samples averaged following treatment of the cells. The plates were incubated an additional 48 hours. Thereafter, the amount of IgE in the supernatants was measured using a conventional quantitative IgE ELISA kit available from Bethyl Laboratories of Montgomery, Tex. Next, the measured OD450 data from the IgE ELISA was inputted into a calibration graph, illustrated in FIG. 4, to determine the concentration of IgE in ng/ml in each supernatant. This calibration graph was generated by measuring the OD450 of multiple, known concentrations (in nanograms per ml) of purified IgE. As shown in the graph, the X-axis indicates the concentrations of the IgE in ng/ml; and the Y-axis indicates the OD450 derived from each of the concentrations. The line 100 connects the data points, while line 110 is a trend line corresponding to the equation in this particular embodiment of: Y=0.2909X−0.2527 Equation 1 With the IgE calibration graph, the amount of IgE for each sample was determined, and the subsequent data was input into FIG. 3 for comparative analysis.
A general note: ELISA stands for enzyme-linked immunosorbent assay.

The subject of assay [2] is IgE receptor (FcεRIα) on RBL-2H3 cells. The assay can be described thus: IgE receptor expression on RBL-2H3 cells (anti-FcεRIα cell ELISA normalized to MTT viability). In kind it is cell-based. How it is done: The methodology used to obtain the results of FIG. 1 will now be described. First, RBL-2H3 cells, available from ATCC (American Type Culture Collection) of Manassas, Va., were plated in 96 well plates at 3×10^4/well. Following adherence to the wells, the cells were exposed to the sample combinations of ingredients listed in Table I, each combination referred to as a “sample.” Stock solutions of all samples were prepared in a solution of DMSO, ethanol, and water present in a ratio of 5:3:2 at 100 mg/ml. […] Duplicate plates of each sample were prepared so that viability could be determined multiple times for each sample, with the results of the multiple samples averaged following treatment of the cells. The plates were incubated an additional 48 hours. To measure IgE-receptor expression, the cells were fixed for 2 hours with 1% gluteraldehyde. Following fixation, the cells were washed twice with PBS-Tween 20 (0.01%), available from Aldrich of Milwaukee, Wis. Protein binding sites were blocked for 2 hours with 2% non-fat dry milk in PBS (Phosphate Buffer Saline buffered at pH 7.3). The cells were washed twice. The primary antibody, Rabbit anti-FcεRIα, available from Upstate Group, Inc., Lake Placid, N.Y., was added to the wells and diluted 1:4000 with 0.2% BSA (Bovine Serum Albumin). Following a 2 hour incubation, the wells were washed 5× with PBS-Tween 20 (0.01%) solutions. The secondary antibody, Goat anti-rabbit IgG-peroxidase, available from Sigma-Aldrich of St. Louis, Mo., was added to the wells at 1:20000 with 0.2% BSA. Following a 1 hour incubation the wells were washed five times. 100 μliters (microliters) of TMB (3,3′,5,5±Tetramethyl benzidine dihydrochloride) Substrate, available from Chemicon International of Temecula, Calif., was added to the wells. Subsequent color development was stopped by the addition of a sufficient amount, H2SO4 (for example, 100 μliters at 1 Normal). For each of the multiple samples of the combination, the OD450 (Optical Density measured at a wavelength of 450 nanometers) was read on a plate reader. Continuing with a description of the methodology to obtain the data in FIG. 1, the viability of the cells was next determined by incubating the cells in the second plate with MTT in a concentration of 1 mg/ml for 3 hours. The reduced MTT was extracted with 70% isopropanol and the OD540 (Optical Density at a wavelength of 540 nanometers) was read for each of the multiple samples.

In assay [3] the test system is allergic response to allergen extracts (cat dander, pollen and grass). The assay can be described thus: Clinical study with Nasal Allergen Challenge (NAC): symptom scores and sneeze counts. In kind it is in vivo, human. How it is done: To test the efficacy of an embodiment of the composition in inhibiting an allergic response, a comparative clinical study was conducted on human subjects. This clinical study consisted of testing twenty subjects for positive allergic reaction to allergen extracts (cat dander, pollen and grass). The subjects were then randomized to receive: a control, specifically a placebo; loratadine, a known anti-histamine drug, sold under the trademark CLARITIN, and a composition of the above embodiments including Picao preto, Acerola, and Cinnamon (referred to herein as the Blend). Each of these were administered to the subjects in three doses a day for two days before receiving a Nasal Allergen Challenge (NAC), which is a commonly used test for predicting real-life efficacy of allergen treatments. Specifically, Claritin was administered in an amount of 10 mg per dose; the placebo in an amount of 450 mg per dose; and the Blend in an amount of 450 mg per dose, that dose for the Blend including 150 mg Picao preto; 150 mg Acerola and 150 mg Cinnamon. Other suitable Cinnamon levels are in the range of about 25 mg to about 650 mg; suitable Picao preto levels are in the range of 25 to about 650 mg; and suitable Acerola levels are in the range of about 25 mg to about 650 mg.
(§1) During the NAC, subjects had […] increasing doses of allergen (0 (water was administered), 50, 250, 1250, and 6250 Bioequivalent Allergy Units/ml (BAU/ml)) squirted up their noses over a period of two hours. Bioequivalent Allergy Units were calculated using ID50EAL testing (Intradermal Dilution for 50 mm Sum of Erythema Determines Bioequivalent Allergy Units) (Turkeltaub PC, Biological standardization of allergenic extracts. Allergol Immunopathol (Madr). 1989, 17:53-65.
To analyze the allergy treatment effects of the Blend, Claritin and the placebo, a composite measurement of blockage, secretion and sneezing was determined. The smallest clinically meaningful difference in allergy treatment effects has been determined to be about a 0.5 score step on an 0 to 9 scale of the composite measurement of blockage, secretion and sneezing. Akerlund, A. et al, Clinical Trial Design, Nasal Allergen Challenge Models and Considerations of relevance to Pediatrics, Nasal Polyposis and Different Classes of Medication. J. Allergy. Clin. Imm., 115 (3.2): S460-482 (March 2005). Measurements used in connection determining blockage, secretion and sneezing were the Nasal Symptoms Score, the Pruritus-Rhinorrhea-Conjunctivitis Score, and sneeze counting, respectively.
The allergic symptoms of the twenty subjects were measured ten minutes after each exposure to the with an eleven-point Nasal Symptom Scale, (on a scale of 1-11, 11 being the most symptoms observed), which is common to the NAC, to establish the Nasal Symptom Score. The subjects also underwent the nasal lavage to collect supernatants which were assayed for allergic reaction and inflammatory mediators: prostaglandin D2; Leukotriene […]; and tryptase.
After the NAC, subjects were released, but continued rating their symptoms every two hours for eight hours using the Nasal Symptom Scale, as well as a 15-point Pruritus-Rhinorrhea-Conjunctivitis Scale, which is a common scale that is intended to be more sensitive than the Nasal Symptom Scale. On this scale, Pruritus, Rhinorrhea, and Conjunctivitis were each rated as none, mild, mild to moderate, moderate, moderate to severe, or severe, scored 0, 1, 2, 3, 4, or 5 points respectively, with a maximum total of 15 points for all three together. In addition, during the eight hour period, the subjects counted and recorded the number of their sneezes within each two-hour period to establish a sneeze count. […]

Another assay relates to Prostaglandin D2. The assay can be described thus: Allergic mediators in nasal fluid (nasal lavage) before and after NAC. In kind it is in vivo, human. The following applies: before versus after administration of allergens. How it is done:
To test the efficacy of an embodiment of the composition in inhibiting an allergic response, a comparative clinical study was conducted on human subjects. This clinical study consisted of testing twenty subjects for positive allergic reaction to allergen extracts (cat dander, pollen and grass). The subjects were then randomized to receive: a control, specifically a placebo; loratadine, a known anti-histamine drug, sold under the trademark CLARITIN, and a composition of the above embodiments including Picao preto, Acerola, and Cinnamon (referred to herein as the Blend). […]
as §1
The allergic symptoms of the twenty subjects were measured ten minutes after each exposure to the with an eleven-point Nasal Symptom Scale, (on a scale of 1-11, 11 being the most symptoms observed), which is common to the NAC, to establish the Nasal Symptom Score. […]

The test system of assay [4] is LTC4 release, RBL-2H3 cells. As to the kind of experiment: LTC4 release from IgE-sensitized, DNP-BSA stimulated RBL-2H3 cells (ELISA). In kind it is cell-based. The following applies: 0.1 μg/ml. How it is done:
(§2) The methodology used to obtain the results of FIG. 9 will now be described. First, RBL-2H3 cells, available from ATCC (American Type Culture Collection) of Manassas, Va., were plated in 24 well plates at 5×10^4/well. Following adherence, the cells were exposed to the ingredients or combination of ingredients noted in FIG. 9, also referred to as samples. The samples were used at the concentrations noted in Table VI. Stock solutions of all samples were prepared in a solution of DMSO, ethanol, and water present in a ratio of 5:3:2 at 100 mg/ml. Each sample was then diluted in media to the final concentration. The cells were then incubated overnight with the samples. The following day a mouse anti-dinitrophenyl (DNP) IgE antibody, available from Sigma of St. Louis, Mo., was added to the cells at a final concentration of 1 ng/ml. The cells were incubated for 1.5 hr at 37° C. to allow binding of the IgE molecule to the cellular IgE receptor via the constant region of the antibody. Following this incubation period, the cells were washed twice. A solution containing DNP conjugated to BSA (DNP-BSA), available from Calbiochem of San Diego, Calif., was added to the cells at 0.5 ng/ml. […] Next, the measured OD450 data from the ELISA was inputted into a calibration graph to determine the amount by which histamine was reduced relative to an untreated control sample. […]

Assay [5] relates to histamine release, RBL-2H3 cells. The assay can be described thus: Histamine release from IgE-sensitized, DNP-BSA stimulated RBL-2H3 cells (ELISA). In kind it is cell-based. The following applies: 10 ng/ml. Here is the method: The methodology used to obtain the results of FIG. 9 will now be described. First, RBL-2H3 cells, available from ATCC (American Type Culture Collection) of Manassas, Va., were plated in 24 well plates at 5×10^4/well. Following adherence, the cells were exposed to the ingredients or combination of ingredients noted in FIG. 9, also referred to as samples. The samples were used at the concentrations noted in Table VI. Stock solutions of all samples were prepared in a solution of DMSO, ethanol, and water present in a ratio of 5:3:2 at 100 mg/ml. Each sample was then diluted in media to the final concentration. The cells were then incubated overnight with the samples. The following day a mouse anti-dinitrophenyl (DNP) IgE antibody, available from Sigma of St. Louis, Mo., was added to the cells at a final concentration of 1 ng/ml. The cells were incubated for 1.5 hr at 37° C. to allow binding of the IgE molecule to the cellular IgE receptor via the constant region of the antibody. Following this incubation period, the cells were washed twice. A solution containing DNP conjugated to BSA (DNP-BSA), available from Calbiochem of San Diego, Calif., was added to the cells at 0.5 ng/ml. The cells were incubated an additional 1 hr at 37° C. The supernatants were assayed for the presence of histamine, PGD2 and/or LTC4 using ELISA kits commercially available from Cayman Chemical of Ann Arbor, Mich. according to the manufacturer's specifications. Next, the measured OD450 data from the ELISA was inputted into a calibration graph to determine the amount by which histamine was reduced relative to an untreated control sample. An example of a histamine calibration graph is illustrated in FIG. 10. Suffice it to say that calibration graphs for PGD2 and LTC4 are similar. The calibration graph in FIG. 10 was generated by measuring the OD450 of multiple, known concentrations of purified histamine. As shown in the graph, the X-axis indicates the concentrations of the histamine in nanomolar; and the Y-axis indicates the OD450 derived from each of the concentrations. The line 120 connects the data points, while line 130 is a trend line corresponding to the equation in this particular embodiment of: Y=−0.0025X^2+0.2915X+2.0775 Equation 2 With the histamine calibration graph, the amount of histamine for each sample was determined, and the subsequent data was input into Table VI and FIG. 9 for comparative analysis.

Assay [6] concerns PGD2 release, RBL-2H3 cells. As to the kind of experiment: PGD2 release from IgE-sensitized, DNP-BSA stimulated RBL-2H3 cells (ELISA). It counts as cell-based. The following applies: 1 μg/ml. How it is done: as §2
Where [7] appears, read: immediate phase (two hours during the NAC).

Regarding `O=C1O[C@H]([C@@H](O)CO)C(O)=C1O` [Vitamin C], in assay [1], the “inhibition of IgE secretion, in words (FIG. 6)” value is reported as “inhibited IgE secretion”. In addition, the “decrease in IgE receptor expression (FIG. 5)” value in assay [2] (200 micrograms per milliliter) came to 15%. In assay [2] (varying concentrations), the “effect on IgE receptor expression, in words (FIG. 5)” value was “significant effect”.
As to `CCOC(=O)N1CCC(=C2c3ccc(Cl)cc3CCc3cccnc32)CC1` [Claritin, loratadine], the “Nasal Symptom Scores versus placebo” value in assay [3] (delayed phase, at six hours and overall, Blend 450 mg per dose, Claritin 10 mg) is listed as “significantly fewer”. Also, the “Nasal Symptom Score versus placebo (FIG. 15)” value in assay [3] (delayed phase, at two hours) is listed as “trends toward significantly fewer symptoms”. In addition, in assay [3] (setting [7]), the “PRC score versus the Blend” value is “lower PRC score” and the “sneezes versus the Blend” value was “fewer sneezes”. For the same compound, the “Nasal Symptom Score versus the Blend” value in assay [3] (immediate phase (two hours during the NAC), Claritin 10 mg per dose) is “lower Nasal Symptom Score”. The “Nasal Symptom Score Areas Over the Curve versus placebo (FIG. 18)” value in assay [3] (total product effect over eight hours) is on record as “significantly better than the placebo”. The “change of Prostaglandin D2 in nasal fluid after the NAC (FIG. 19)” value in the assay on Prostaglandin D2 was “significant rise”.
Take `O=C(/C=C/c1ccc(O)c(O)c1)O[C@H](Cc1ccc(O)c(O)c1)C(=O)O` [Rosmarinic acid]: the “Percent Control LTC4 Release (Table VI)” value in assay [4] came to 120%. For the same compound, the “Percent Control of Histamine Release (Table VI)” value in assay [5] was 9.3%. Also, in assay [6], the “Percent Control of PGD2 Release (Table VI)” value came out at 94%.
